The values that follow come from US11135188B2, “Method and composition to improve absorption of therapeutic agents” (Bayer HealthCare LLC, priority 2009, dated 2021).

This data set in a line: Compatibility: degradation products of aspirin/carbonate blends by HPLC. Format: physicochemical. The protocol: The degradation products of various combinations of aspirin and various carbonates were determined for different combinations of aspirin and different grades and sources of carbonates to evaluate the compatibility and stability. Milling for about fifteen minutes appeared to slightly induce the production of free salicylic acid (FSA), but not to a significant extent. […] The results are shown in Table 3 (all blend percentages are weight percentages obtained using High Performance Liquid Chromatography (HPLC))

Take `CC(=O)Oc1ccccc1C(=O)O` [100% Aspirin-Milled 15 min, Aspirin]: the “Acetyl Salicylic Salicylic Acid ASSA” value is recorded as 0.00% and the “FSA (free salicylic acid)” value is listed as 0.00%.
